Assay results as given in patent US10752900B2, “Oligonucleotides for modulating gene expression and uses thereof” (BIOGENERA S.P.A., priority 2012, dated 2020).

What was measured:
Assay type in all cases: cell-based, human
MYCN gene [1] = experiment: QT-PCR, MYCN mRNA in RH30 cells
Protocol: For the purpose of assessing the ability of the oligonucleotides of the present invention to modulate the expression of the target genes, their ability to reduce the quantity of messenger RNA was analyzed using the Real-Time PCR technique. For this purpose, use was made of 24-well plates, which were seeded with 5.0×10^4 cells with 0.3 ml of OPTI-MEM (GIBCO BRL) medium, 4% FBS and 2 mM L-glutammine (experiments in triplicate) per well. The cells were incubated for 24 hours at 37° C., in an atmosphere containing 5% CO2 to permit adherence to the base of the wells. Each oligonucleotide analyzed, except for the PNA oligonucleotides, was incubated beforehand with 2 μl of Lipofectamine 2000 (Invitrogen), with 0.3 mL of serum-free OPTI-MEM (GIBCO BRL) medium. For each well, the oligonucleotides were analyzed at the following final concentrations: • the antisense oligonucleotides siRNA and siRNA gapmer (i.e. the oligonucleotides containing one or more monomers of chemically modified nucleic acids at the 3' or 5' end, while in the central portion they have monomers of nucleic acids that have not been modified or have been modified at the level of the phosphodiester bond as a phosphorothioate bond) were used at 200 nM; • the antisense oligonucleotides containing phosphorothioate DNA monomers, the RNA antigene oligonucleotides (agRNA) and the oligonucleotides containing DNA monomers and LNA monomers were used at 10 μM; • the morpholino oligonucleotides were used at a concentration of 1 μM, and • the PNA oligonucleotides were administered at a concentration of 1 μM. The cells were treated with the oligonucleotides, adding FBS up to 4% 6 hours after administration of the same. After 24 hours the total RNA was extracted from each well and purified using the RNeasy Mini Kit (QIAGEN). Assays were performed on 8 cell lines obtained from 5 different human tumours which are correlated with MYCN expression, i.e.: • as a neuroblastoma model use was made of the cell lines Kelly, IMR-32 (where the MYCN gene is amplified and superexpressed) and SKNBE2c and LAN1 (where the MYCN gene is amplified and superexpressed and the p53 gene is mutated); • as a rabdomiosarcoma model use was made of the cell line RH30, where the MYCN gene is amplified and superexpressed; • as a Wilms' tumour model use was made of the cell line WiT49, where the MYCN gene is amplified and superexpressed; • as a retinoblastoma model use was made of the cell line Y79, where the MYCN gene is amplified and superexpressed; and • as a model of small cell lung cancer use was made of the cell line H69 where the MYCN gene is amplified and superexpressed. As a control, use was made of the same cell lines as listed above treated with sterile water instead of oligonucleotides. Each RNA sample was quantified (in duplicate) using a NanoDrop ND-1000 spectrophotometer (NanoDrop Technologies). The first strand of cDNA was produced using the cDNA Synthesis Kit for RT-PCR (Roche). For the cDNA synthesis reaction a total of 1 μg of RNA was used. For the real-time PCR, 10 ng of cDNA in a final volume of 20 μl was used with SYBR Green Master Mix 2× (Applied Biosystems) (3 identical experiments were conducted in triplicate). Two housekeeping genes were used as positive controls: GAPDH and beta-actin (ACTB). The conditions of the QT-PCR reaction were: 10 min at 95° C., 20 sec at 95° C., and 30 sec at 60° C., for 50 cycles. The PNAs having SEQ ID NO: 1-12 were also tested on different cell lines which overexpress MYCN (Kelly, SKNBE2c, RH30, […] 1 and H69). The results are shown in Table 6 and confirm the selectivity and specificity of the inhibition effect of the PNAs on the product of protein translation of the MYCN gene. Chimeric oligonucleotides comprising DNA monomers and LNA monomers and having the MYCN gene as their target were tested in vitro on alveolar rabdomyosarcoma cells (RH30). […]

[2] = test system: rabdomyosarcoma cells (RH30); experiment: Cellular proliferation assay (ATP-Lite), RH30 cells
Protocol: For the purpose of assessing the gene modulation ability of the oligonucleotides of the present invention, the effect of their administration on cell viability was determined. For this purpose 5×10^3 cells per well were seeded into 96-well cell culture plates (experiments conducted in triplicate) with 100 μl of OPTI-MEM (GIBCO BRL) medium containing 4% FBS and 2 mM of L-glutammine. The PNA oligonucleotides were administered at different concentrations (1 μM-2.5 μM-5 μM-10 μM) in order to observe a dose-effect relationship. As regards all the other oligonucleotides, the concentrations at which they administered are listed in the paragraph: The viability of the treated cells was determined at 48, 72, 96 and 168 hours after treatment. Cell viability was assessed by means of an ATP-Lite assay (Luminescence ATP Detection Assay System, PerkinElmer) and is reported as the ratio between the average signal of the treated wells compared to the average value of the wells of untreated control cells. The cells were processed following the instructions provided with the kit. The assays were performed on the same cell lines used to determine the levels of the MYCN gene messenger and listed in the paragraph: Treatments with Oligonucleotides-QT-PCR. The PNAs having SEQ ID NO: 1-12 were also tested on different cell lines which overexpress MYCN (Kelly, SKNBE2c, RH30, […] 1 and H69). The results are shown in Table 6 and confirm the selectivity and specificity of the inhibition effect of the PNAs on the product of protein translation of the MYCN gene. Chimeric oligonucleotides comprising DNA monomers and LNA monomers and having the MYCN gene as their target were tested in vitro on alveolar rabdomyosarcoma cells (RH30). […] The antisense oligonucleotides designed and synthesized by the Applicant according to the parameters described in the present invention were analyzed in vitro on rabdomyosarcoma cells (RH30).

MYCN gene [3] = experiment: QT-PCR, MYCN mRNA in Kelly cells; set-up: mRNA Inhibition (%)(Kelly): concentration or dose not given beside the values; conditions: for mRNA Inhibition (%)(Kelly): Table 7, SEQ ID NO: 5 and guanine-group mutants
Protocol: For the purpose of assessing the ability of the oligonucleotides of the present invention to modulate the expression of the target genes, their ability to reduce the quantity of messenger RNA was analyzed using the Real-Time PCR technique.
For this purpose, use was made of 24-well plates, which were seeded with 5.0×10^4 cells with 0.3 ml of OPTI-MEM (GIBCO BRL) medium, 4% FBS and 2 mM L-glutammine (experiments in triplicate) per well.
The cells were incubated for 24 hours at 37° C., in an atmosphere containing 5% CO2 to permit adherence to the base of the wells.
Each oligonucleotide analyzed, except for the PNA oligonucleotides, was incubated beforehand with 2 μl of Lipofectamine 2000 (Invitrogen), with 0.3 mL of serum-free OPTI-MEM (GIBCO BRL) medium.
For each well, the oligonucleotides were analyzed at the following final concentrations: • the antisense oligonucleotides siRNA and siRNA gapmer (i.e. the oligonucleotides containing one or more monomers of chemically modified nucleic acids at the 3′ or 5′ end, while in the central portion they have monomers of nucleic acids that have not been modified or have been modified at the level of the phosphodiester bond as a phosphorothioate bond) were used at 200 nM; • the antisense oligonucleotides containing phosphorothioate DNA monomers, the RNA antigene oligonucleotides (agRNA) and the oligonucleotides containing DNA monomers and LNA monomers were used at 10 μM; • the morpholino oligonucleotides were used at a concentration of 1 μM, and • the PNA oligonucleotides were administered at a concentration of 1 μM.
The cells were treated with the oligonucleotides, adding FBS up to 4% 6 hours after administration of the same. After 24 hours the total RNA was extracted from each well and purified using the RNeasy Mini Kit (QIAGEN).
Assays were performed on 8 cell lines obtained from 5 different human tumours which are correlated with MYCN expression, i.e.: • as a neuroblastoma model use was made of the cell lines Kelly, IMR-32 (where the MYCN gene is amplified and superexpressed) and SKNBE2c and LAN1 (where the MYCN gene is amplified and superexpressed and the p53 gene is mutated); • as a rabdomiosarcoma model use was made of the cell line RH30, where the MYCN gene is amplified and superexpressed; • as a Wilms' tumour model use was made of the cell line WiT49, where the MYCN gene is amplified and superexpressed; • as a retinoblastoma model use was made of the cell line Y79, where the MYCN gene is amplified and superexpressed; and • as a model of small cell lung cancer use was made of the cell line H69 where the MYCN gene is amplified and superexpressed.
As a control, use was made of the same cell lines as listed above treated with sterile water instead of oligonucleotides. Each RNA sample was quantified (in duplicate) using a NanoDrop ND-1000 spectrophotometer (NanoDrop Technologies). The first strand of cDNA was produced using the cDNA Synthesis Kit for RT-PCR (Roche). For the cDNA synthesis reaction a total of 1 μg of RNA was used. For the real-time PCR, 10 ng of cDNA in a final volume of 20 μl was used with SYBR Green Master Mix 2× (Applied Biosystems) (3 identical experiments were conducted in triplicate). Two housekeeping genes were used as positive controls: GAPDH and beta-actin (ACTB).
The conditions of the QT-PCR reaction were: 10 min at 95° C., 20 sec at 95° C., and 30 sec at 60° C., for 50 cycles.
(§1) As far as the PNA oligonucleotides are concerned, the results regarding their ability to inhibit the transcription of the MYCN gene and proliferation of Kelly cells are shown in Table 1.
The oligonucleotides were tested in vitro (at a concentration of 2.5 μM) to determine their ability to inhibit the transcription of the gene they are directed against by measuring the levels of the gene messenger in cellular models in which the gene of interest is overexpressed. The methods used are the ones described in example 1. […]

Kelly cells = experiment: Cellular proliferation assay (ATP-Lite), Kelly cells; conditions: Table 7, SEQ ID NO: 5 and guanine-group mutants
Protocol: For the purpose of assessing the gene modulation ability of the oligonucleotides of the present invention, the effect of their administration on cell viability was determined.
For this purpose 5×10^3 cells per well were seeded into 96-well cell culture plates (experiments conducted in triplicate) with 100 μl of OPTI-MEM (GIBCO BRL) medium containing 4% FBS and 2 mM of L-glutammine.
The PNA oligonucleotides were administered at different concentrations (1 μM-2.5 μM-5 μM-10 μM) in order to observe a dose-effect relationship.
As regards all the other oligonucleotides, the concentrations at which they administered are listed in the paragraph:
The viability of the treated cells was determined at 48, 72, 96 and 168 hours after treatment.
Cell viability was assessed by means of an ATP-Lite assay (Luminescence ATP Detection Assay System, PerkinElmer) and is reported as the ratio between the average signal of the treated wells compared to the average value of the wells of untreated control cells. The cells were processed following the instructions provided with the kit.
The assays were performed on the same cell lines used to determine the levels of the MYCN gene messenger and listed in the paragraph: Treatments with Oligonucleotides—QT-PCR.
as §1
The ability of the tested oligonucleotides to inhibit the messenger of the gene of interest was measured and the proliferative capacity of the cells following administration of the oligonucleotides was also assessed.

[4] = Table 8, DNA-LNA oligonucleotides used at 10 μM with Lipofectamine 2000
[5] = Table 8, DNA-LNA oligonucleotides used at 10 μM

Row | Substance | mRNA Inhibition (%)(Kelly) (MYCN gene [3]) [%] | (Kelly) Cell Prolif. % (Kelly cells) [%] | also measured
1 | SEQ ID NO: 24: single-stranded chimeric DNA-LNA oligonucleotide ATGCCGGGCATGATCT against MYCN (DNA at CT, LNA at AG, backbone and methylation of C not given here) |  |  | mRNA inhibition (%) (MYCN gene [1]; [4]): 23%; Cell Prolif. (%) [2, 5]: 75%
2 | SEQ ID NO: 25: single-stranded chimeric DNA-LNA oligonucleotide ATGCCGGGCATGATCT against MYCN (DNA at AG, LNA at CT, backbone and methylation of C not given here) |  |  | mRNA inhibition (%) (MYCN gene [1]; [4]): 24%; Cell Prolif. (%) [2, 5]: 78%
3 | SEQ ID NO: 26: double-stranded siRNA against MYCN, sense UGAAGAUGAUGAAGAGGAA, antisense SEQ ID NO: 57 (antisense UUCCUCUUCAUCAUCUUCA; listed as RNA, chemistry not given here) |  |  | mRNA inhibition (%) (MYCN gene [1]; Table 9, siRNA and siRNA gapmer used at 200 nM with Lipofectamine 2000): 82%; Cell Prolif. (%) ([2]; Table 9, siRNA and siRNA gapmer used at 200 nM): 28%
4 | SEQ ID NO: 43: PNA GCTGAGTCGATGCGTG, SEQ ID NO: 5 with all groups of consecutive guanines mutated (all peptide nucleic acid (PNA); antigene PNA, 3' carrier peptide conjugation not given here per molecule) | 0 | 100 | inhibitory activity (MYCN gene [3]; all groups of consecutive guanines of SEQ ID NO: 5 mutated): inhibitory activity of the PNAs to be lost
5 | SEQ ID NO: 44: PNA GCTGAGTGGATGCGTG, modified SEQ ID NO: 5 with groups of consecutive guanines mutated (all peptide nucleic acid (PNA); antigene PNA, 3' carrier peptide conjugation not given here per molecule) | 25 | 89 | 
6 | SEQ ID NO: 45: PNA GCTGGGTCGATGCGGG, modified SEQ ID NO: 5 with a group of consecutive guanines mutated (all peptide nucleic acid (PNA); antigene PNA, 3' carrier peptide conjugation not given here per molecule) | 47 | 69 | 
7 | SEQ ID NO: 46: PNA GTTGGGTGGATGTGGG, modified SEQ ID NO: 5 (all peptide nucleic acid (PNA); antigene PNA, 3' carrier peptide conjugation not given here per molecule) | 58 | 60 | 
